From ChEMBL document CHEMBL1201862, “PubChem BioAssay data set” (2004) come the findings set out here.

Among the test systems are HT-29; SF-295; HOP-62; HCT-15; CCRF-CEM; MOLT-4; HL-60; UACC-257; SR; RPMI-8226; SW-620; OVCAR-3; SK-MEL-28; EKVX; SN12C; NCI-H522; OVCAR-8; HOP-92.
Common to all, as to test: NCI anticancer screen, dose series, 48 h

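These data come from cells grown in 96-well plates and exposed to compound for 48 hours at five concentrations. GI50 marks 50% less growth.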 Activity calls are given as the source filed them. No stated cut-off is given here; in the data, active = GI50 up to about 1.1 µM and inactive = higher.

Regarding `COC(=O)/C(=N/NC(=O)C[N+](C)(C)C)C(C(=O)OC)C(=O)C(=O)Nc1ccc(F)cc1` (stereo not given), the GI50 is > 100 µM (inactive) with HT-29; > 100 µM (inactive) with SF-295; > 100 µM (inactive) in the assay with HOP-62; greater than 100 µM in the assay with HCT-15; > 100 µM (inactive) in the assay on CCRF-CEM; > 100 µM (inactive) with MOLT-4. Further, the GI50 in the assay with HL-60, in the assay with UACC-257, in the assay on SR, in the assay with RPMI-8226, in the assay on SW-620 and with OVCAR-3 was > 100 µM (inactive) throughout. Besides, the GI50 in the assay with SK-MEL-28, in the assay on EKVX, in the assay on SN12C and in the assay with NCI-H522 was > 100 µM (inactive) throughout.
`[Zn+2][N+]12CCN3CCN4CCN(CC1)[PH]432` (stereo not given): the GI50 with HT-29 was > 100 µM (inactive); in the assay with SF-295, > 100 µM (inactive); in the assay on HOP-62 it was > 100 µM (inactive); in the assay with HCT-15 it was greater than 100 µM; with CCRF-CEM, > 100 µM (inactive); in the assay with MOLT-4 it was > 100 µM (inactive). Moreover, the GI50 in the assay with HL-60, in the assay on UACC-257, in the assay on SR, in the assay on RPMI-8226, with SW-620 and in the assay with OVCAR-3 was > 100 µM (inactive) each time. In addition, the GI50 in the assay on SK-MEL-28, in the assay on EKVX, in the assay on SN12C, with OVCAR-8 and with NCI-H522 was > 100 µM (inactive) each time.
As for `COc1ccccc1NC(=O)CC(=O)NNCC(=O)Nc1nnc(-c2ccccc2)o1`, the GI50 is > 100 µM (inactive) in the assay on HT-29; > 100 µM (inactive) in the assay with SF-295; > 100 µM (inactive) with HOP-62; greater than 100 µM with HCT-15; > 100 µM (inactive) in the assay with MOLT-4; > 100 µM (inactive) in the assay on UACC-257. Besides, the GI50 with SR, in the assay on RPMI-8226, with SW-620, with OVCAR-3, with SK-MEL-28 and in the assay on EKVX was > 100 µM (inactive) each time. The GI50 with SN12C, with OVCAR-8 and with NCI-H522 was > 100 µM (inactive) each time.
For `COc1ccc(NC(=O)NS(=O)(=O)c2ccc(C)cc2)nn1`, the GI50 in the assay on HT-29 was > 100 µM (inactive); in the assay with SF-295, > 100 µM (inactive); in the assay with HOP-62, > 100 µM (inactive); in the assay with HCT-15, greater than 100 µM; in the assay on CCRF-CEM, > 100 µM (inactive); in the assay with MOLT-4 it was > 100 µM (inactive). Further, the GI50 in the assay on HL-60, in the assay on UACC-257, in the assay with RPMI-8226, in the assay with SW-620, in the assay with HOP-92 and in the assay with OVCAR-3 was > 100 µM (inactive) throughout. In addition, the GI50 in the assay on SK-MEL-28, with EKVX, with SN12C, in the assay with OVCAR-8 and with NCI-H522 was > 100 µM (inactive) in each case.
Consider `Cc1ccccc1NC(=O)Cc1nc2ccccc2s1`, for which the GI50 with HT-29 was 19.6 µM (inactive); in the assay on SF-295, 15.8 µM (inactive); in the assay on HOP-62, > 10 µM (inactive); with CCRF-CEM, 9.51 µM (inactive); with MOLT-4, 17.9 µM (inactive); in the assay on HL-60 it was 9.44 µM (inactive). Moreover, the GI50 in the assay on UACC-257 was 17.1 µM (inactive); with SR it was 13.1 µM (inactive); in the assay on SW-620, 19.8 µM (inactive); with OVCAR-3, 18 µM (inactive); in the assay on SK-MEL-28, 17.7 µM (inactive); in the assay with EKVX, 19.7 µM (inactive). Also, the GI50 was 16.6 µM (inactive) in the assay with SN12C, 17.7 µM (inactive) in the assay with OVCAR-8 and 15.3 µM (inactive) in the assay on NCI-H522.
Take `CN(C)CCNC(=O)c1ccccc1Nc1c(Cl)cccc1Cl`: the GI50 was 6.75 µM (inactive) in the assay on HT-29; 13.7 µM (inactive) in the assay with HOP-62; 14.8 µM in the assay with HCT-15; 12.7 µM (inactive) in the assay with CCRF-CEM; 13.1 µM (inactive) with MOLT-4; 11 µM (inactive) in the assay on HL-60. In addition, the GI50 in the assay on UACC-257 is 5.75 µM (inactive); in the assay with SR, 12.6 µM (inactive); with RPMI-8226, 11.9 µM (inactive); with SW-620, 14.1 µM (inactive); with SK-MEL-28, 14.8 µM (inactive); in the assay on EKVX, 8.2 µM (inactive). Also, the GI50 with SN12C is 15.1 µM (inactive); in the assay on OVCAR-8, 14.1 µM (inactive).
For the compound `COC(=O)/C(=N\NC(N)=O)C(C(=O)C=C(C)C)C(=O)C(=O)Nc1ccc(Cl)c(Cl)c1` (stereo not given), the GI50 was > 100 µM (inactive) with HT-29; > 100 µM (inactive) with SF-295; > 100 µM (inactive) with HOP-62; greater than 100 µM with HCT-15; > 100 µM (inactive) in the assay with CCRF-CEM; > 100 µM (inactive) in the assay on MOLT-4. Moreover, the GI50 in the assay on HL-60, in the assay on UACC-257, in the assay with SR, in the assay on SW-620, in the assay with OVCAR-3 and in the assay on SK-MEL-28 was > 100 µM (inactive) in each case. Besides, the GI50 in the assay on EKVX, in the assay on SN12C, in the assay on OVCAR-8 and with NCI-H522 was > 100 µM (inactive) throughout.
For the compound `Nc1ccc(C(=O)N/C(=C\c2cccc([N+](=O)[O-])c2)c2nc3cc(Cl)ccc3[nH]2)cc1`, the GI50 is > 100 µM (inactive) in the assay on HT-29; > 100 µM (inactive) with SF-295; greater than 100 µM in the assay with HCT-15; > 100 µM (inactive) in the assay with CCRF-CEM; > 100 µM (inactive) with MOLT-4; > 100 µM (inactive) in the assay with SR. In addition, the GI50 is > 100 µM (inactive) in the assay on SW-620; 24.4 µM (inactive) in the assay on HOP-92; > 100 µM (inactive) in the assay with OVCAR-3; > 100 µM (inactive) with SK-MEL-28; > 100 µM (inactive) in the assay on EKVX; > 100 µM (inactive) in the assay with SN12C. The GI50 with OVCAR-8 and with NCI-H522 was > 100 µM (inactive) throughout.
In the case of `CC1(C)OC(COCCOCCCCCO)C(COCCOCCCCCO)O1` (stereo not given), the GI50 in the assay with HT-29 was > 100 µM (inactive); in the assay on SF-295, > 100 µM (inactive); in the assay on HOP-62, > 100 µM (inactive); in the assay with HCT-15, greater than 100 µM; in the assay with MOLT-4, > 100 µM (inactive); in the assay on HL-60 it was > 10 µM (inactive). The GI50 in the assay with UACC-257, in the assay on SR, in the assay on RPMI-8226, in the assay on SW-620, with OVCAR-3 and in the assay on SK-MEL-28 was > 100 µM (inactive) each time. Besides, the GI50 in the assay on EKVX, in the assay on SN12C, in the assay on OVCAR-8 and with NCI-H522 was > 100 µM (inactive) in each case.
